Test results: US20220259558A1, “METHODS FOR OBTAINING EYE FIELD PROGENITOR CELLS FROM HUMAN PLURIPOTENT STEM CELLS” (Novo Nordisk A/S, priority 2019, published 2022)

Legend:
[1] = system: hESC; assay: Differentiation of hESC into eye field progenitor cells, marker-positive cells by immunofluorescence; type: cell-based, human
From the text: FIGS. 2A and 2B show the effect of human BMP5 and Activin A on the differentiation of hESC into VSX2 and MITF positive cells. Immunofluorescence showing conditions 1 and 2, without BMP5 or Activin A, with poor levels of MITF or VSX2. In contrast, the addition of BMP5 from day 12 (conditions 3 and 4), increase the number of cells positive for MITF and VSX2. The addition of Activin A from day 15, in combination with BMP5, has no clear additional effect. In contrast, the use of Activin A alone from day 12, or combination with BMP5 from day 15 (conditions 5 and 6), generates a lower number of cells positive for MITF and VSX2. […] The combination of IHH (Indian Hedgehog) and DKK2 (Dickkopf WNT Signaling Pathway Inhibitor 2) might help in the generation of MITF/VSX2 positive cells.
An initial treatment with the small molecule GW788388, NOGGIN and Endo IWR1 for 12 days, followed by a treatment with BMP5, IHH and DKK2 generates high numbers of PAX6/OTX2 double positive cells addressed by immunofluorescence. DAPI is used for nuclear staining of all cells.
The use of BMP5 induces the generation of MITF and VSX2 positive cells (second row), addressed by immunofluorescence, indicating the generation of neural retina progenitor cells. In contrast, the addition of the GSK3 inhibitor CHIR99021 (lower row) drastically blocks the expression of VSX2, and reinforces the expression of MITF and the generation of MITF positive cells with cobblestone morphology. This is indicative of RPE progenitor cells. First row, control without BMP5. DAPI is used for nuclear staining of all cells.
(§1) hESC-RPE monolayer differentiation hESC were plated at a cell density of 5.5×10^4 cells/cm2 on hrLN-332 laminin coated dishes at 10 μg/mL (Biolaminin 332 LN, Biolamina) using NutriStem hPSC XF medium. Rho-kinase inhibitor (Y-27632, Millipore) at a concentration of 10 μM was added during the first 24 hours, while cells were kept at 37° C., 5% CO2. After 24 hours, the culture medium was replaced with differentiation medium according to the examples. The differentiation media “GMEM” in the following examples is always supplemented with Penicillin-Streptomycin solution (20 units/ml; Thermo Fisher), beta-Mercaptoethanol (0.5 mM; Thermo Fisher), Sodium pyruvate (1 mM; Thermo Fisher), Non-Essential Amino Acids (1×; Thermo Fisher).
In order to differentiate hESC into eye progenitor cells, we tested the effect of BMP5 in different conditions in combination with small molecules and recombinant proteins that mimics developmental cues. We relied on sequential activation and/or repression of the common developmental pathways associated to eye development for our differentiation protocol and combined with activation of BMP pathway by BMP5. After cell dissociation, hESC line expanded on LN-521 were dissociated to single cells and seeded on LN-332 for differentiation. These cells adapted well to this laminin.
We decided to explore the inhibition of GSK3 with the small molecule CHIR99021 in combination with BMP5, and to remove the WNT inhibitor Endo IWR1 from the protocol, as GSK3 inhibition might activate canonical (beta-Catenin dependent) WNT signalling.
We decided to explore the effect of another SMAD inhibitor, RepSOX, in combination with NOGGIN, and to combine with BMP5 and CHIR99021 to obtain RPE progenitor cells positive for MITF. This will indicate if different SMAD inhibitors could be used in our BMP5-based protocol.

[2] = system: hESC; assay: Protein expression of hESC-derived progenitor cells by flow cytometry; type: cell-based, human; details: after 21 days, single SMAD inhibitor (GW788388)
Protocol: More than 40% of the cells show co-expression of the markers PAX6/MITF.
More than 50% of the cells show co-expression of the markers PAX6/VSX2.
as §1
In order to provide quantitative data of the cells generated with our BMP5-based protocol, we analysed the eye field progenitor cells generated under treatment with BMP5 for NR progenitor cells or with BMP5 and CHIR99021 for RPE progenitor cells by flow cytometry. Moreover, we tested single SMAD inhibition by removing NOGGIN from the protocol.

[3] = system: hESC; assay: RNA (gene) expression analysis of differentiated hESC, real-time PCR; type: cell-based, human; details: for induction of gene expression of markers of eye field progenitor cells with a RPE progenitor cell identity: comparison of BMPs, day 7-21, with CHIR99021 day 12-21, single SMAD inhibition
Protocol: The graphs indicate the cycle threshold (CT) values from real-time polymerase chain reaction (PCR). Differentiated cells with BMP5 are collected at day 21 and RNA extracted, converted to cDNA and RNA expression analyses performed. hESC are used as comparison and CT values are inversely proportional to mRNA level.
RNA expression of RPE progenitor cell-related genes was quantified. Note that 200 ng/ml and 1000 ng/ml of BMP5 treatment promote the expression of RPE progenitor genes.
RNA expression of neural retina progenitor genes was quantified. 200 ng/ml and 1000 ng/ml of BMP5 treatment promote the expression of neural retina progenitor cell genes.
The effect of BMP5 is compared to that of BMP4, BMP7 and BMP4/7 heterodimer.
as §1
We analyzed gene expression at day 21 on cells that were generated with the following protocol, […]

[4] = system: human embryonic stem cells (hESC); assay: Initial attachment of hESC on different laminins after single cell seeding (brightfield); type: cell-based; details: after 12 hours; hESC grown and maintained on LN-521, single cell seeding
Protocol: LN-332 can be used for further differentiation.
An internally generated hESC line was maintained on human recombinant laminin (hrLN) coated plates (Biolaminin 521 LN, Biolamina) in NutriStem hPSC XF medium (Biological Industries), in a 5% CO2 incubator at 37° C. and passaged enzymatically at 1:10-1:20 ratio every 3-5 days. For passaging, confluent cultures were washed once with phosphate buffered saline (PBS) without calcium and magnesium ions and incubated for 5 min at 37° C. with TrypLE Select (GIBCO, Thermo Fisher Scientific). The enzyme was then carefully removed and the cells were collected in fresh NutriStem hPSC XF medium by gentle pipetting to obtain single cell suspension and the required volume plated on a freshly hrLN-521 coated dish. After passage, the medium was replaced with fresh prewarmed NutriStem hPSC XF medium and changed daily.
hESC-RPE monolayer differentiation hESC were plated at a cell density of 5.5×10^4 cells/cm2 on hrLN-332 laminin coated dishes at 10 μg/mL (Biolaminin 332 LN, Biolamina) using NutriStem hPSC XF medium. Rho-kinase inhibitor (Y-27632, Millipore) at a concentration of 10 μM was added during the first 24 hours, while cells were kept at 37° C., 5% CO2. After 24 hours, the culture medium was replaced with differentiation medium according to the examples. […]

[5] = Example 1, immunofluorescence, factor from day 12 after NOGGIN+GW788388+Endo IWR1, to day 21

Question: What does the source list for “BMP5: human bone morphogenetic protein 5, recombinant protein (R&D systems), SEQ ID NO: 1”?
Answer: generation of MITF and VSX2-positive cells [1, 5]: generated MITF and VSX2-positive cells; generation of MITF and VSX2-positive cells ([1]; Example 2, dual SMAD inhibition (NOGGIN+GW788388), BMP5 from day 7 to day 21): strongly generated MITF and VSX2-positive cells; generation of double PAX6/OTX2 positive cells ([1]; immunofluorescence, GW788388, NOGGIN and Endo IWR1 for 12 days, then BMP5, IHH and DKK2): induces the generation of double PAX6/OTX2 positive cells; PAX6-positive cells [2]: more than 95%; double positive cells PAX6/VSX2 [2]: more than 50%; best condition (BMP5 concentration) to induce eye field progenitor cells with a RPE progenitor cell identity ([3]; 0, 0.1, 200 and 1000 ng/ml tested, day 7-21, with CHIR99021 day 12-21, gene expression day 21): 200 ng/mL; best condition (BMP5 concentration) to generate eye field progenitor cells with a NR progenitor cell identity ([3]; 0, 0.1, 200 and 1000 ng/ml tested, day 7-21, VSX2 gene expression day 21): 200 ng/mL; effect on generation of eye field progenitor cells ([3]; BMP5 at 1000 ng/ml): positive but milder effect; induction of gene expression of markers of eye field progenitor cells with a RPE progenitor cell identity [3]: superior effect; MITF, PAX6 and VSX2 mRNA levels ([3]; day 21, CT values, compared to hESC): increased compared to hESC

Question: For “LN-332: human recombinant laminin isoform 332 (Biolaminin 332 LN, Biolamina), coating matrix”, which “initial attachment of hESC” value [4] is on record?
Answer: excellent attachment

B1: BMP7: member of the BMP family compared to BMP5 (protein, UniProt P18075 293-431, looked up)
Bone morphogenetic protein 7: STGSKQRSQNRSKTPKNQEALRMANVAENSSSDQRQACKKHELYVSFRDLGWQDWIIAPEGYAAYYCEGECAFPLNSYMNATNHAIVQTLVHFINPETVPKPCCAPTQLNAISVLYFDDSSNVILKKYRNMVVRACGCH
Question: How did the “induction of gene expression of markers of eye field progenitor cells with a RPE progenitor cell identity” value [3] turn out when B1 was run?
Answer: better than BMP4

B2: Activin A: Recombinant protein (R&D systems/Peprotech) (protein, UniProt P08476 311-426, looked up)
Inhibin beta A chain: GLECDGKVNICCKKQFFVSFKDIGWNDWIIAPSGYHANYCEGECPSHIAGTSGSSLSFHSTVINHYRMRGHSPFANLKSCCVPTKLRPMSMLYYDDGQNIIKKDIQNMIVEECGCS
modifications: Inhibin beta A chain
Question: With B2 as the molecule, how does the “generation of MITF and VSX2-positive cells” value [1, 5] read?
Answer: negative effect

B3: BMP4: member of the BMP family compared to BMP5 (protein, UniProt P12644 293-408, looked up)
Bone morphogenetic protein 4: SPKHHSQRARKKNKNCRRHSLYVDFSDVGWNDWIVAPPGYQAFYCHGDCPFPLADHLNSTNHAIVQTLVNSVNSSIPKACCVPTELSAISMLYLDEYDKVVLKNYQEMVVEGCGCR
Question: For B3, which “induction of gene expression of markers of eye field progenitor cells with a RPE progenitor cell identity” value [3] is on record?
Answer: least capacity to induce these markers

B4: DKK2: Dickkopf WNT Signaling Pathway Inhibitor 2, recombinant protein (protein, UniProt Q9UBU2 34-259, looked up)
Dickkopf-related protein 2: KLNSIKSSLGGETPGQAANRSAGMYQGLAFGGSKKGKNLGQAYPCSSDKECEVGRYCHSPHQGSSACMVCRRKKKRCHRDGMCCPSTRCNNGICIPVTESILTPHIPALDGTRHRDRNHGHYSNHDLGWQNLGRPHTKMSHIKGHEGDPCLRSSDCIEGFCCARHFWTKICKPVLHQGEVCTKQRKKGSHGLEIFQRCDCAKGLSCKVWKDATYSSKARLHVCQKI
Question: How did the “generation of MITF and VSX2-positive cells” value [1, 5] turn out when B4 was run?
Answer: not sufficient to generate MITF or VSX2-positive cells
